Test results taken from patent publication US20230286970A1, “NOVEL OXADIAZOLE-BASED SELECTIVE HDAC6 INHIBITORS” (ITALFARMACO S.P.A., priority 2020, published 2023).

Experiments:
[1] = target: recombinant human HDAC1 (Homo sapiens (Human), UniProt Q13547); assay: Enzymatic screening, HDAC1 inhibition (fluorogenic FdL_G substrate); type: biochemical
In short: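 Recombinant human HDAC1 inhibition was measured fluorometrically using the FLUOR DE LYS-Green (FdL_G) substrate. Compounds at 8 doses (1% DMSO final) in Tris-HCl pH 8 buffer with NaCl, Tween-20 and glycerol were preincubated in triplicate with enzyme and 1 mg/mL BSA, then given substrate. Developer I plus 2 μM TSA was added, and fluorescence read after 25 minutes in the dark.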

[2] = target: recombinant human HDAC6 (Homo sapiens (Human), UniProt Q9UBN7); assay: Enzymatic screening, HDAC6 inhibition (fluorogenic FdL_G substrate); type: biochemical
recombinant human HDAC6, sequence (Q9UBN7 whole entry): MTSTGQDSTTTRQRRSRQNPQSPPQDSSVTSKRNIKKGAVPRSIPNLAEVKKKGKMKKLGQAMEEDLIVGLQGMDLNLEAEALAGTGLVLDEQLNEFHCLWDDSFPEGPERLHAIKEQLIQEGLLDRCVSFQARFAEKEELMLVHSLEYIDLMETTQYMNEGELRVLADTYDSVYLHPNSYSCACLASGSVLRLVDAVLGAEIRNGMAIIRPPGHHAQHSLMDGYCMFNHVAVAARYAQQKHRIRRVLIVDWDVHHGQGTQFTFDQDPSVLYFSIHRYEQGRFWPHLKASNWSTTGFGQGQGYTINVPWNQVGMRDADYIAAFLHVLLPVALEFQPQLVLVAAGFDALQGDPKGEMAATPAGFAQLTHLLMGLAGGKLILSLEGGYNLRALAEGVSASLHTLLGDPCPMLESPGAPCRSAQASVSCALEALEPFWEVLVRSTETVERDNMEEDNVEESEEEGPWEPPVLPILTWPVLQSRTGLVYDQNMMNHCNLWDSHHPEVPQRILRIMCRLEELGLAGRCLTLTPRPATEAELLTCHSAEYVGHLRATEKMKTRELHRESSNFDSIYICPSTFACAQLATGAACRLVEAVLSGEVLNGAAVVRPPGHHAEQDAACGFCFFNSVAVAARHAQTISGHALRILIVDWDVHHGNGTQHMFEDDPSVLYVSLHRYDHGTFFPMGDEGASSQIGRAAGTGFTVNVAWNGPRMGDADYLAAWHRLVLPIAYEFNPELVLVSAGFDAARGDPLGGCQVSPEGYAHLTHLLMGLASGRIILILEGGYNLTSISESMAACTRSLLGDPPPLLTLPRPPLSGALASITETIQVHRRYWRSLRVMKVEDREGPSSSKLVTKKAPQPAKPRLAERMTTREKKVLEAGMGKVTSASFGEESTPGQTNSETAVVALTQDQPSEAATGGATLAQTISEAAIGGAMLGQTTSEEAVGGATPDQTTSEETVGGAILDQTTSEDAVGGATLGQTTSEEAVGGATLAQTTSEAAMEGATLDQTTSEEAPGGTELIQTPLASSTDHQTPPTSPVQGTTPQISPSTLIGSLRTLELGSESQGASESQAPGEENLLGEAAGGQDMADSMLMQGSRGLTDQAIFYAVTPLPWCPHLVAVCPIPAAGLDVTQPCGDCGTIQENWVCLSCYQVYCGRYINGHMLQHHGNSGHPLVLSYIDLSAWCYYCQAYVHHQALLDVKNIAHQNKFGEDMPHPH
In short: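 Enzyme was preincubated with compound (8 doses, triplicate, 1% DMSO) in 25 mM Tris-HCl pH 8, 130 mM NaCl, 0.05% Tween-20, 10% glycerol, with BSA. A FLUOR DE LYS-Green substrate was then added, and fluorescence was read after developer plus 2 μM TSA.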

recombinant human HDAC1, sequence (Q13547 whole entry): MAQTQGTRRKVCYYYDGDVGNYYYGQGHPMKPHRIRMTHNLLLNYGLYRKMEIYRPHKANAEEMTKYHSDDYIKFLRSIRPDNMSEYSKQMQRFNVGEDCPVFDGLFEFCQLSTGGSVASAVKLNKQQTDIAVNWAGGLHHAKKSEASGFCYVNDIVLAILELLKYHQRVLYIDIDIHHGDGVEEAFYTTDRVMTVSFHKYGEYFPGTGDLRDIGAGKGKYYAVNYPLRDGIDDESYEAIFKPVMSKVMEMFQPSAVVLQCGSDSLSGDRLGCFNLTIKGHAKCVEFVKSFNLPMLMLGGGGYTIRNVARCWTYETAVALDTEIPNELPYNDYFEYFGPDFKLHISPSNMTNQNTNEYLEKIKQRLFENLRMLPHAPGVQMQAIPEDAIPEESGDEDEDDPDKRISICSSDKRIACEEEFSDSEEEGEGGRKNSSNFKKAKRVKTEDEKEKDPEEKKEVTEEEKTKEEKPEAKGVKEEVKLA

| Compound | IC50 [1] | IC50 [2] |
| --- | --- | --- |
| Nc1ccc(-c2ncc(Cc3ccc(-c4nnc(C(F)F)o4)cc3)o2)cc1 [compound 330, 4-(5-(4-(5-(difluoromethyl)-1,3,4-oxadiazol-2-yl)benzyl)oxazol-2-yl)aniline] | > 1e+06 nM | 465 nM |
| Nc1nc2ccc(-c3cnn(Cc4ccc(-c5nnc(C(F)F)o5)cn4)c3)cc2s1 [compound 327, 6-[1-[[5-[5-(difluoromethyl)-1,3,4-oxadiazol-2-yl]pyridin-2-yl]methyl]pyrazol-4-yl]-1,3-benzothiazol-2-amine] | > 1e+06 nM | 40 nM |
| Nc1ccc(-c2cn(C(CCCO)c3ccc(-c4nnc(C(F)F)o4)cc3)nn2)cn1 (stereo not shown) [compound 335, 4-(4-(6-aminopyridin-3-yl)-1H-1,2,3-triazol-1-yl)-4-(4-(5-(difluoromethyl)-1,3,4-oxadiazol-2-yl)phenyl)butan-1-ol] | > 1e+06 nM | 62 nM |
| CC(C)(C)OC(=O)N1CCC2(CC1)C(=O)Nc1ccc(-c3cn(Cc4ccc(-c5nnc(C(F)F)o5)cc4)nn3)cc12 [compound 216, tert-butyl 5-(1-(4-(5-(difluoromethyl)-1,3,4-oxadiazol-2-yl)benzyl)-1H-1,2,3-triazol-4-yl)-2-oxospiro[indoline-3,4′-piperidine]-1′-carboxylate] | > 200000 nM | 151 nM |
| CNc1ccc(-c2nnn(Cc3ccc(-c4nnc(C(F)F)o4)cc3)n2)cc1N [compound 164, 4-(2-(4-(5-(difluoromethyl)-1,3,4-oxadiazol-2-yl)benzyl)-2H-tetrazol-5-yl)-N-1-methylbenzene-1,2-diamine] | > 200000 nM | 77 nM |
| O=C(Nc1cccc(-c2cnn(Cc3ccc(-c4nnc(C(F)F)o4)cn3)c2)c1)N1CCOCC1 [compound 119, N-(3-(1-((5-(5-(difluoromethyl)-1,3,4-oxadiazol-2-yl)pyridin-2-yl)methyl)-1H-pyrazol-4-yl)phenyl)morpholine-4-carboxamide] | > 200000 nM | 45 nM |
| FC(F)c1nnc(-c2ccc(Cc3nc(-c4ccc(NC5=NCCN5)cc4)no3)cc2)o1 [compound 379, N-[4-[5-[[4-[5-(difluoromethyl)-1,3,4-oxadiazol-2-yl]phenyl]methyl]-1,2,4-oxadiazol-3-yl]phenyl]-4,5-dihydro-1H-imidazol-2-amine] | > 1e+06 nM | 17 nM |
| CN(Cc1ccc(-c2nc(Cc3c(F)cc(-c4nnc(C(F)F)o4)cc3F)no2)cc1)C(=O)C(F)F [compound 206, N-(4-(3-(4-(5-(difluoromethyl)-1,3,4-oxadiazol-2-yl)-2,6-difluorobenzyl)-1,2,4-oxadiazol-5-yl)benzyl)-2,2-difluoro-N-methylacetamide] | > 200000 nM | 127 nM |
| Nc1ccc(-c2cn(Cc3ncc(-c4nnc(C(F)F)o4)cn3)nn2)cn1 [compd. 125, 5-(1-((5-(5-(difluoromethyl)-1,3,4-oxadiazol-2-yl)pyrimidin-2-yl)methyl)-1H-1,2,3-triazol-4-yl)pyridin-2-amine] | > 200000 nM | 48 nM |
| COc1ncc(NCc2ccc(-c3cn(Cc4c(F)cc(-c5nnc(C(F)F)o5)cc4F)nn3)cc2)cc1C(N)=O [Compd. 154, 5-((4-(1-(4-(5-(difluoromethyl)-1,3,4-oxadiazol-2-yl)-2,6-difluorobenzyl)-1H-1,2,3-triazol-4-yl)benzyl)amino)-2-methoxynicotinamide] | > 200000 nM | 67 nM |
| FC(F)c1nnc(-c2ccc(Cn3nnc(-c4cccc(-c5cnn6c5CNCC6)c4)n3)cc2)o1 [compound 111, 2-(difluoromethyl)-5-(4-((5-(3-(4,5,6,7-tetrahydropyrazolo[1,5-a]pyrazin-3-yl)phenyl)-2H-tetrazol-2-yl)methyl)phenyl)-1,3,4-oxadiazole] | > 200000 nM | 42 nM |
| O=C(Nc1cccc(-c2nnn(Cc3ccc(-c4nnc(C(F)F)o4)cc3)n2)c1)c1ccccc1 [compound 156, N-(3-(2-(4-(5-(difluoromethyl)-1,3,4-oxadiazol-2-yl)benzyl)-2H-tetrazol-5-yl)phenyl)benzamide] | > 200000 nM | 70 nM |

Further lines, results first:

| IC50 [1] | IC50 [2] | Compound |
| --- | --- | --- |
| > 200000 nM | 172 nM | O=C(Nc1cccc(-c2cnn(Cc3ccc(-c4nnc(C(F)F)o4)cc3)c2)c1)N1CCOCC1 [compound 227, N-(3-(1-(4-(5-(difluoromethyl)-1,3,4-oxadiazol-2-yl)benzyl)-1H-pyrazol-4-yl)phenyl)morpholine-4-carboxamide] |
| 1e+06 nM | 12 nM | Nc1ncnc2cc(-c3cn(Cc4ccc(-c5nnc(C(F)F)o5)cc4F)nn3)ccc12 [compound 387, 7-[1-({4-[5-(difluoromethyl)-1,3,4-oxadiazol-2-yl]-2-fluorophenyl}methyl)-1H-1,2,3-triazol-4-yl]quinazolin-4-amine] |
| > 1e+06 nM | 22 nM | Cn1c(N)nc2cc(-c3cn(Cc4cc(F)c(-c5nnc(C(F)F)o5)cc4F)nn3)ccc21 [compound 350, 5-[1-[[4-[5-(difluoromethyl)-1,3,4-oxadiazol-2-yl]-2,5-difluorophenyl]methyl]triazol-4-yl]-1-methylbenzimidazol-2-amine] |
| 1e+06 nM | 420 nM | CCNc1ccc2cc(-c3nnn(Cc4cc(F)c(-c5nnc(C(F)F)o5)cc4F)n3)ccc2n1 [compound 409, 6-(2-(4-(5-(difluoromethyl)-1,3,4-oxadiazol-2-yl)-2,5-difluorobenzyl)-2H-tetrazol-5-yl)-N-ethylquinolin-2-amine] |
| > 200000 nM | 33 nM | O=C1NCCc2ccc(-c3nnn(Cc4ccc(-c5nnc(C(F)F)o5)cc4)n3)cc21 [compound 83, 7-[2-[[4-[5-(difluoromethyl)-1,3,4-oxadiazol-2-yl]phenyl]methyl]tetrazol-5-yl]-3,4-dihydro-2H-isoquinolin-1-one] |
| > 200000 nM | 169 nM | NC(=O)c1cccc(-c2noc(Cc3ccc(-c4nnc(C(F)F)o4)cc3)n2)c1 [Compd. 226, 3-(5-(4-(5-(difluoromethyl)-1,3,4-oxadiazol-2-yl)benzyl)-1,2,4-oxadiazol-3-yl)benzamide] |
| > 1e+06 nM | 219 nM | Nc1nc2ccc(-c3cnn(Cc4ccc(-c5nnc(C(F)F)o5)cc4)c3)cc2s1 [compound 326, 6-(1-(4-(5-(difluoromethyl)-1,3,4-oxadiazol-2-yl)benzyl)-1H-pyrazol-4-yl)benzo[d]thiazol-2-amine] |
| > 1e+06 nM | 88 nM | Nc1ccc(-c2noc(Cc3ccc(-c4nnc(C(F)F)o4)cc3)n2)cc1 [compound 375, 4-[5-[[4-[5-(difluoromethyl)-1,3,4-oxadiazol-2-yl]phenyl]methyl]-1,2,4-oxadiazol-3-yl]aniline] |
| > 200000 nM | 109 nM | O=C(Nc1cncc(-c2nnn(Cc3ccc(-c4nnc(C(F)F)o4)cc3)n2)c1)N1CCOCC1 [compound 199, N-(5-(2-(4-(5-(difluoromethyl)-1,3,4-oxadiazol-2-yl)benzyl)-2H-tetrazol-5-yl)pyridin-3-yl)morpholine-4-carboxamide] |
| > 200000 nM | 491 nM | Cn1c(Sc2ccc(-c3nnc(C(F)F)o3)cc2)nnc1-c1ccc(N)nc1 [compound 285, 5-(5-((4-(5-(difluoromethyl)-1,3,4-oxadiazol-2-yl)phenyl)thio)-4-methyl-4H-1,2,4-triazol-3-yl)pyridin-2-amine] |
| > 200000 nM | 99 nM | CC(c1ccc(-c2nnc(C(F)F)o2)c(F)c1)n1cc(-c2cccc(NC(=O)N3CCOCC3)c2)nn1 (stereo not shown) [compound 189, N-(3-(1-(1-(4-(5-(difluoromethyl)-1,3,4-oxadiazol-2-yl)-3-fluorophenyl)ethyl)-1H-1,2,3-triazol-4-yl)phenyl)morpholine-4-carboxamide] |
| > 200000 nM | 43 nM | Cc1ncccc1-c1cn(Cc2ccc(-c3nnc(C(F)F)o3)cn2)nn1 [compound 115, 2-(difluoromethyl)-5-(6-((4-(2-methylpyridin-3-yl)-1H-1,2,3-triazol-1-yl)methyl)pyridin-3-yl)-1,3,4-oxadiazole] |
| > 200000 nM | 352 nM | FC(F)c1nnc(-c2ccc(Cn3nnc(-c4cccc(-c5cnc(N6CCOCC6)s5)c4)n3)cc2)o1 [compd. 253, 4-(5-(3-(2-(4-(5-(difluoromethyl)-1,3,4-oxadiazol-2-yl)benzyl)-2H-tetrazol-5-yl)phenyl)thiazol-2-yl)morpholine] |
| 1e+06 nM | 116 nM | CNc1ncc2cc(-c3cn(Cc4ccc(-c5nnc(C(F)F)o5)cc4F)nn3)ccc2n1 [compound 390, 6-[1-({4-[5-(difluoromethyl)-1,3,4-oxadiazol-2-yl]-2-fluorophenyl}methyl)-1H-1,2,3-triazol-4-yl]-N-methylquinazolin-2-amine] |
| > 1e+06 nM | 29 nM | O=C(Nc1cccc(-c2cn(Cc3cc(F)c(-c4nnc(C(F)F)o4)cc3F)nn2)c1)N1CCOCC1 [compound 363, N-[3-[1-[[4-[5-(difluoromethyl)-1,3,4-oxadiazol-2-yl]-2,5-difluorophenyl]methyl]triazol-4-yl]phenyl]morpholine-4-carboxamide] |
| > 1e+06 nM | 34 nM | Nc1ncnc2cc(-c3cn(Cc4ccc(-c5nnc(C(F)F)o5)cn4)nn3)ccc12 [compound 317, 7-[1-[[5-[5-(difluoromethyl)-1,3,4-oxadiazol-2-yl]pyridin-2-yl]methyl]triazol-4-yl]quinazolin-4-amine] |
| > 200000 nM | 19 nM | Nc1ccc(-c2cn(Cc3c(F)cc(-c4nnc(C(F)F)o4)cc3F)nn2)cn1 [compound 42, 5-(1-(4-(5-(difluoromethyl)-1,3,4-oxadiazol-2-yl)-2,6-difluorobenzyl)-1H-1,2,3-triazol-4-yl)pyridin-2-amine] |
